What was measured:
[1] = test system: HIF; test: HIF reporter assay (HIF-activity-dependent Firefly-Luciferase) in 661W cells with CoCl2; type: cell-based, mouse; settings: for cytotoxicity (endogenous control CMV-Renilla-Luciferase activity): CoCl2; for HIF activity (HIF inhibitory activity): CoCl2 200 μM, luminescence 24 hours after CoCl2
Procedure: (§1) The HIF-activity-dependent Firefly-Luciferase and endogenous control CMV-Renilla-Luciferase were both transgenic into mouse fibroblast cell line (NIH3T3) and mouse retinal […] cell line (661 W) using lentiviruses to generate stable expression lines. HIF can be stabilized by adding cobalt chloride (CoCl2), a PHD inhibitor, to the cells, and luciferin can be added to obtain a luminescent signal correlating with HIF activity. Samples of various natural products were added to the cells to confirm the HIF inhibitory effect of the candidate on cobalt chloride-induced HIF activity.
(§2) Specifically, 1×10^4 of NIH3T3 cells and 0.8×10^4 of 661 W cells were seeded on a 96-well plate with the above cell lines. After cells were engrafted to the bottom of the plate, HIF-activity was induced by adding CoCl2 at 200 μM. The luminescence strength was measured 24 hours after the CoCl2 was added using a Dual-Glo Luciferase assay system manufactured by Promega Corporation. The candidates were added at the same time as the of the CoCl2.

[2] = test system: HIF; test: HIF reporter assay (HIF-activity-dependent Firefly-Luciferase) in NIH3T3 cells with CoCl2; type: cell-based, mouse; settings: for cytotoxicity (endogenous control CMV-Renilla-Luciferase activity): CoCl2; for HIF activity (HIF inhibitory activity): CoCl2 200 μM, luminescence 24 hours after CoCl2
Procedure: as §1, §2

[3] = test system: HIF; test: HIF reporter assay in ARPE19 cells with CoCl2; type: cell-based
Procedure: as §1, §2
Halofuginone, a halogenated derivative of ferbrifudine in Hydrangea macrophylla, was used as a sample to measure HIF activity on 661W cells, 3T3 cells, or ARPE19 cells in the assays described above. […] In FIGS. 11 to 13, “CoCl2+HF” indicates a system in which CoCl2 are added to the cells. […]

[4] = test system: bnip3 gene; test: Real-time PCR gene expression in 661W cells with CoCl2; type: cell-based, mouse; settings: CoCl2 200 μM, four hours after adding halofuginone
Procedure: (§3) In the system of 661W cells to which the CoCl2 was added, the expression levels of the respective genes were measured in order to examine the inhibitory effects of halofuginone on the hif gene induced by the CoCl2 and the bnip3 gene, glut1 gene, pdk1 gene, and vegf gene which are the downstream genes. The expression level was measured by Real-time PCR. Specifically, 3×10^4 of 661 W cells were seeded on a 24-well plate, and CoCl2 was added at a density of 200 μM after cell immobilization. Halofuginone was added at the concentrations shown in FIG. 14 simultaneously with CoCl2. Four hours after adding halofuginone, RNAs were extracted, cDNA was synthesized, and then Real-time PCR was performed to determine the expression levels of the respective genes.

[5] = test system: glut1 gene; test: as above; type: cell-based, mouse; settings: CoCl2 200 μM, four hours after adding halofuginone
Procedure: as §3

[6] = test system: pdk1 gene; test: as above; type: cell-based, mouse; settings: CoCl2 200 μM, four hours after adding halofuginone
Procedure: as §3

[7] = test system: Mouse Retinal Photoinjury Model; test: Mouse retinal photoinjury model, electroretinography; type: in vivo, BALB/c mice; settings: 0.4 mg/kg intraperitoneally once daily for 5 days, white LED 3000 lux 1 hour, compared with PBS group
Procedure: First, 0.4 mg/kg of halofuginone solution dissolved in PBS was administered intraperitoneally once daily to BALB/c mice 8 weeks old for 5 consecutive days (halofuginone group; n=4). The control group received the same amount of PBS (phosphate buffered saline) intraperitoneally (n=4) for the same period of time. Dark adaptation was performed on day 4 of the above period and then on day 5 a white LED of 3000 lux was irradiated for 1 hour. Dark adaptation was performed on day 6 after the light irradiation, and electroretinography was performed on day 7.

[8] = test system: Mouse Retinal Ischemia-Reperfusion Model; test: Mouse retinal ischemia-reperfusion model, visual evoked potential (VEP); type: in vivo, C57BL6J mice; settings: 0.2 mg/kg intraperitoneally, 1 Hz flashing light 3 cds/m^2
Procedure: (§4) First, 0.2 mg/kg of halofuginone solution dissolved in PBS was administered intraperitoneally once daily to C57BL6J mice 8 weeks old (male; manufactured by Crea Japan) for 7 consecutive days (Halofuginone group; n=4). The control group received the same dose of PBS intraperitoneally for the same period (n=4).
(§5) Retinal ischemia reperfusion treatment was then performed as follows.
(§6) Nine-week-old mice were administered intraperitoneal anesthetics (three mixtures: medetomidine 0.75 mg/kg, midazolam 4 mg/kg, and butorphanol 5 mg/kg; hereinafter referred to as “MMB”). At the same time as anesthesia, Midrin P ophthalmic solution (Santen Pharmaceutical Co., Ltd.) was used to dilate both eyes.
(§7) The physiological saline infusion bags were fixed at a height of 1.5 m from the laboratory table, inserted into the anterior chamber of the right eye of the mice with 35 G needles perfused with physiological saline, and perfusion was started. Intraocular pressure was measured every 5 minutes (Tonolab hand-held tonometer; manufactured by icare Corporation) to confirm that intraocular pressure was maintained at 85-99 mm Hg. […]
The VEPs of the same individuals were then measured continuously. […]
Differences (P1-N1) from each first negative crest to the next positive crest were measured as amplitudes, and latencies were also measured, and the mean of two times was evaluated as the value of one individual.

[9] = test system: Mouse Retinal Ischemia-Reperfusion Model; test: Mouse retinal ischemia-reperfusion model, optical coherence tomography (OCT); type: in vivo, C57BL6J mice; settings: 0.2 mg/kg intraperitoneally, radius 250 μm from optic nerve head
Procedure: as §4, §5, §6, §7
The entire thickness of the retina was evaluated using OCTs in order to measure the total thickness of the retina in the In vivo.
Mice were fixed under MMB anesthesia and the total retinal thickness centered on the optic papilla was measured. […]

[10] = test system: mouse ganglion cell disorder model; settings: vitreous administration of N-methyl-D-aspartic acid; previously reported by the inventors; cited from earlier work

Q: For `COc1cccc2c1C(=O)c1c(O)c3c(c(O)c1C2=O)C[C@@](O)(C(=O)CO)C[C@@H]3O[C@H]1C[C@H](N)[C@H](O)[C@H](C)O1` [doxorubicin], which “cytotoxicity (endogenous control CMV-Renilla-Luciferase activity)” value (“cytotoxicity” for short) [1] is on record?
A: without cytotoxicity

Q: And the “HIF activity (HIF inhibitory activity)” value [1]?
A: significantly decreased

Q: What about the “cytotoxicity” value [2] of the same compound?
A: without cytotoxicity

Q: And the “HIF activity (HIF inhibitory activity)” value [2]?
A: significantly decreased

Q: For `CC[C@@]1(O)C(=O)OCc2c1cc1n(c2=O)Cc2cc3c(CN(C)C)c(O)ccc3nc2-1` [topotecan], which “cytotoxicity” value [1] is on record?
A: without cytotoxicity

Q: And the “cytotoxicity” value [2]?
A: without cytotoxicity

Q: Which “HIF activity (HIF inhibitory activity)” value [1] does the source give for `O=C(C[C@@H]1NCCC[C@H]1O)Cn1cnc2cc(Br)c(Cl)cc2c1=O` [halofuginone] here?
A: significant level-dependent HIF inhibitory activity

Q: What about the “HIF activity (HIF inhibitory activity)” value [2] of the same compound?
A: significant level-dependent HIF inhibitory activity

Q: And the “HIF activity (HIF inhibitory activity)” value [3]?
A: significant level-dependent HIF inhibitory activity

Q: And the “expression level of the bnip3 gene” value [4]?
A: decreased

Q: And the “expression level of the glut1 gene” value [5]?
A: decreased

Q: And the “expression level of the pdk1 gene” value [6]?
A: decreased

Q: What about the “electroretinography amplitude (dark-adapted and light-adapted)” value [7] of the same compound?
A: decrease in amplitude was suppressed

Q: And the “VEP amplitude (P1-N1)” value [8]?
A: 92±10.9 μV

Q: And the “total thickness of the retina by OCT” value [9]?
A: 251.9±7.2 μm

Q: And the neuroprotective effect [10]?
A: neuroprotective effect
